This note sets out measurements from ChEMBL document CHEMBL5550132, “Structure-activity relationship in NOD2 agonistic muramyl dipeptides” (Eur J Med Chem, 2024).

Assay [1] addresses T1, Nuclear factor NF-kappa-B complex (Homo sapiens) (UniProt Q00653+P19838+Q04206). Description: Activation of NF-KappaB (unknown origin) expressed in HEK293T cells assessed as fold change at 10 nM incubated for 12 hrs by Renilla luciferase assay. Format: cell-based. Conditions: filed as activator.
In assay [2] the target is T1, Nuclear factor NF-kappa-B complex (Homo sapiens). Description: Activation of NF-KappaB (unknown origin) expressed in HEK293T cells assessed as fold change at 1000 nM incubated for 12 hrs by Renilla luciferase assay. Type of assay: cell-based. Conditions: filed as activator.
Assay [3] has the same target. Description: Activation of NF-KappaB (unknown origin) expressed in HEK293T cells assessed as fold change at 100 nM incubated for 12 hrs by Renilla luciferase assay. Type of assay: cell-based. Conditions: filed as activator.
For assay [4] the target is unchanged. Description: Activation of NF-KappaB (unknown origin) expressed in HEK293T cells assessed as fold change at 10 ng incubated for 12 hrs by Renilla luciferase assay. Type of assay: cell-based. Conditions: filed as activator.
Assay [5] has the same target. Description: Activation of NF-KappaB (unknown origin) expressed in HEK293T cells assessed as fold change at 1 uM incubated for 12 hrs by Renilla luciferase assay. Type of assay: cell-based. Conditions: filed as activator.
For a further assay, the species on record is Cavia porcellus. Description: Induction of delayed type hypersensitivity in ABA-BSA immunized Hartley Guinea pigs assessed as reduction in skin lesions at 100 ug measured for 24 hrs. Conditions: dose 100 µg. Type of assay: functional.

T1 sequence (P19838 whole entry, looked up): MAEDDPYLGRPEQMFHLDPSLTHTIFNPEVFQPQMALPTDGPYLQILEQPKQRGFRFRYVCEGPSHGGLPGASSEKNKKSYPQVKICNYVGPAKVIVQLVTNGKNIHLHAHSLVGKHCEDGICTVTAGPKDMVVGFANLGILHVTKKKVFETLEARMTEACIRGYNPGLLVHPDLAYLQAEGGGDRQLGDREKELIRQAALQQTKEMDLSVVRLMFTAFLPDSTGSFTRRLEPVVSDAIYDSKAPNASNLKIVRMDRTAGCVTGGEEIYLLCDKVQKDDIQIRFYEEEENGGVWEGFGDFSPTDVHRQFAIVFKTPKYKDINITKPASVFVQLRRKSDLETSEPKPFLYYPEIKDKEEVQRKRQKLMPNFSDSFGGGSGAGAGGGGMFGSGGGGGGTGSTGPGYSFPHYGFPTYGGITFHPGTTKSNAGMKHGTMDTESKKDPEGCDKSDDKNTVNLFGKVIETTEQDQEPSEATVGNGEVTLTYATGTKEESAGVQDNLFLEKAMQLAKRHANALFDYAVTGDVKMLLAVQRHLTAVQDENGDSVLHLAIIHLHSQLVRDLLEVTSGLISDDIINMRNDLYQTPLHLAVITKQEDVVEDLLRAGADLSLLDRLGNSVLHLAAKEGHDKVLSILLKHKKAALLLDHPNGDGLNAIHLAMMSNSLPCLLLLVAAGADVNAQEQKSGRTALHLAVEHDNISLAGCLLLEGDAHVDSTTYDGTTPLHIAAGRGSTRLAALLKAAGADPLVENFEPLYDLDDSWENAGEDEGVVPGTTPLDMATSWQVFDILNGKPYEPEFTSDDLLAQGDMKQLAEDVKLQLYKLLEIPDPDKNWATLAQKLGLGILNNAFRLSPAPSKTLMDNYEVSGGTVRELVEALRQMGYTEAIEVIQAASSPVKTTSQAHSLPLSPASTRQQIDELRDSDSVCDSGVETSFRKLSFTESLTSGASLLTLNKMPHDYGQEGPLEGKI
T1 sequence (Q00653 whole entry, looked up): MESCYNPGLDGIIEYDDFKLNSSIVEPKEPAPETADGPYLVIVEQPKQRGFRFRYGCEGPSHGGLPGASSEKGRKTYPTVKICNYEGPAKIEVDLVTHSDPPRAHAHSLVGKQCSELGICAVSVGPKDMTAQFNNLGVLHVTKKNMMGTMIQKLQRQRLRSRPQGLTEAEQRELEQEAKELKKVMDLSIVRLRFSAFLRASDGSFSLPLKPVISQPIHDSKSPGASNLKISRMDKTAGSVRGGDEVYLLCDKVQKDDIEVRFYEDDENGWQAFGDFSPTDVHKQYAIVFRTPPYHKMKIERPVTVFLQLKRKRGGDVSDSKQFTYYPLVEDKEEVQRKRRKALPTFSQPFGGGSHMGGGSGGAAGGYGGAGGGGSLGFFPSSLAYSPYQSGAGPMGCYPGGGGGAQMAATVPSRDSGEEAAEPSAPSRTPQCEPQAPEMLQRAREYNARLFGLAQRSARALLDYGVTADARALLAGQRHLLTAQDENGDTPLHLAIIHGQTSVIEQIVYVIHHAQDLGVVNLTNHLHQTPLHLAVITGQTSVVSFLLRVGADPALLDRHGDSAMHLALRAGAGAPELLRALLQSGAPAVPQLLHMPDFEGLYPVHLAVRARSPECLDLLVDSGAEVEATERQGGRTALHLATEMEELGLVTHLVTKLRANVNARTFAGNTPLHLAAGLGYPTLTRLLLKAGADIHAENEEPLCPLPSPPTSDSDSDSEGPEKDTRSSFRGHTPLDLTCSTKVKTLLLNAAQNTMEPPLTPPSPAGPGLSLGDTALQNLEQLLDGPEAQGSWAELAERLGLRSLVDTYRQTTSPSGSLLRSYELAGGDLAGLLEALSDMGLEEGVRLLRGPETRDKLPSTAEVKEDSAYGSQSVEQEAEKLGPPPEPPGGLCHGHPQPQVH
T1 sequence (Q04206 whole entry, looked up): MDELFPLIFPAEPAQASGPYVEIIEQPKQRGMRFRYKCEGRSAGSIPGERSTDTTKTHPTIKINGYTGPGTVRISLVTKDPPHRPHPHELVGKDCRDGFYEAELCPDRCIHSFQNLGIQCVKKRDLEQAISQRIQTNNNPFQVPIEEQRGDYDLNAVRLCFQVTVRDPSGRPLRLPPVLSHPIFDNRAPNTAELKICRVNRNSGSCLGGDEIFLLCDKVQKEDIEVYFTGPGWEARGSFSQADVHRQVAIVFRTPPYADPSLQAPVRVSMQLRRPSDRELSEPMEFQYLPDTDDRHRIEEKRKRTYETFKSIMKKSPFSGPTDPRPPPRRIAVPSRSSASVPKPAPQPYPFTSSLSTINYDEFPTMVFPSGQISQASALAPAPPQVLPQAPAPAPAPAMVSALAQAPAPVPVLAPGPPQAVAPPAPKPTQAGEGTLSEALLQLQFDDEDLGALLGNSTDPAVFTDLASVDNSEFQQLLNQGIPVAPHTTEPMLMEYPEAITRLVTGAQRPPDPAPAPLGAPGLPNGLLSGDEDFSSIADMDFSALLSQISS

With `CC(=O)N[C@@H]1[C@@H](O[C@H](C)C(=O)N[C@@H](C)C(=O)N[C@H](CCC(=O)O)C(=O)NC2CCCCC2)[C@H](O)[C@@H](CO)O[C@H]1O`, the fold change (FC) in assay [1] was 1; in assay [2], 2.9; in assay [3], 1; in assay [4] it was 1.

Turning to `CCCCCCCCCCCCCCCCCCCCOC(=O)[C@@H](CCC(=O)O)NC(=O)[C@H](C)NC(=O)[C@@H](C)O[C@H]1[C@H](O)[C@@H](CO)O[C@@H](O)[C@@H]1NC(C)=O`, the fold change (FC) in assay [1] turned out to be 5.7; in assay [2], 5.7; in assay [3], 7.35; in assay [4], 5.7.

For `CC(=O)N[C@@H]1[C@@H](O[C@H](C)C(=O)N[C@@H](C)C(=O)N[C@H](CCC(=O)O)C(=O)NCC(F)(F)C(F)(F)F)[C@H](O)[C@@H](CO)O[C@H]1O`, the fold change (FC) is 0.8 in assay [1], 2.4 in assay [2], 0.9 in assay [3] and 0.8 in assay [4].

On to `C[C@H](NC(=O)[C@@H](C)O[C@H]1[C@H](O)[C@@H](CO)O[C@@H](O)[C@@H]1NC(=O)Cc1c(F)c(F)c(F)c(F)c1F)C(=O)N[C@H](CCC(=O)O)C(N)=O`, for which, in assay [5], the fold change (FC) was determined as 5.4.

Regarding `CCCCCCCCCCCO[C@@H]1O[C@H](CO)[C@@H](O)[C@H](O[C@H](C)C(=O)N[C@@H](C)C(=O)N[C@H](CCC(=O)O)C(N)=O)[C@H]1NC(=O)CO`, the fold change (FC) in assay [5] is 4.85.

Take `CCCCCO[C@@H]1O[C@H](CO)[C@@H](O)[C@H](O[C@H](C)C(=O)N[C@@H](C)C(=O)N[C@H](CCC(=O)O)C(N)=O)[C@H]1NC(=O)CO`: the fold change (FC) in assay [5] is 4.5.

As to `CCCCNC(=O)[C@@H](CCC(=O)O)NC(=O)[C@H](C)NC(=O)[C@@H](C)O[C@H]1[C@H](O)[C@@H](CO)O[C@@H](O)[C@@H]1NC(C)=O`, the fold change (FC) stood at 1.1 in assay [1], 2.1 in assay [2], 1.1 in assay [3] and 1.1 in assay [4].

In the case of `C[C@H](NC(=O)[C@@H](C)O[C@H]1[C@H](O)[C@@H](CO)O[C@@H](O)[C@@H]1NC(=O)CN)C(=O)N[C@H](CCC(=O)O)C(N)=O`, the fold change (FC) in assay [5] stood at 4.5.

`CO[C@@H]1O[C@H](CO)[C@@H](O)[C@H](O[C@H](C)C(=O)N[C@@H](C)C(=O)N[C@H](CCC(=O)O)C(N)=O)[C@H]1N`: the fold change (FC) in assay [5] was 6.2.

As to `CCCCCCNC(=O)[C@@H](CCC(=O)O)NC(=O)[C@H](C)NC(=O)[C@@H](C)O[C@H]1[C@H](O)[C@@H](CO)O[C@@H](O)[C@@H]1NC(C)=O`, the fold change (FC) in assay [1] is 1.1; in assay [2] it was 2.8; in assay [3], 1.15; in assay [4] it was 1.1.

Turning to `CC(=O)N[C@@H]1[C@@H](O[C@H](C)C(=O)N[C@@H](C)C(=O)N[C@H](CCC(=O)O)C(=O)OC2CCCCC2)[C@H](O)[C@@H](CO)O[C@H]1O`, the fold change (FC) in assay [1] was determined as 4.6; in assay [2] it was 6.55; in assay [3], 6.8; in assay [4], 4.6.

For the compound `CO[C@@H]1O[C@H](CO)[C@@H](O)[C@H](O[C@H](C)C(=O)N[C@@H](C)C(=O)N[C@H](CCC(=O)O)C(N)=O)[C@H]1NC(=O)Cc1c(F)c(F)c(F)c(F)c1F`, the fold change (FC) in assay [5] was determined as 5.

As for `CCCCCCCCCCCCCCCCOC(=O)[C@@H](CCC(=O)O)NC(=O)[C@H](C)NC(=O)[C@@H](C)O[C@H]1[C@H](O)[C@@H](CO)O[C@@H](O)[C@@H]1NC(C)=O`, the fold change (FC) in assay [1] amounted to 5.3; in assay [2], 4.9; in assay [3], 7; in assay [4] it was 5.3.

For `COCC(=O)N[C@@H]1[C@@H](O[C@H](C)C(=O)N[C@@H](C)C(=O)N[C@H](CCC(=O)O)C(N)=O)[C@H](O)[C@@H](CO)O[C@H]1O`, the fold change (FC) in assay [5] amounted to 4.4.

Regarding `CCCCC(=O)N[C@@H]1[C@@H](O[C@H](C)C(=O)N[C@@H](C)C(=O)N[C@H](CCC(=O)O)C(N)=O)[C@H](O)[C@@H](CO)O[C@H]1O`, the fold change (FC) in assay [5] is 4.5.

With `CC(=O)N[C@@H]1[C@@H](O[C@H](C)C(=O)N[C@@H](C)C(=O)N[C@H](CCC(=O)O)C(=O)OCCCl)[C@H](O)[C@@H](CO)O[C@H]1O`, the fold change (FC) in assay [1] was determined as 4.2; in assay [2] it was 6.55; in assay [3], 6.6; in assay [4] it was 4.2.

On to `CO[C@@H]1O[C@H](CO)[C@@H](O)[C@H](O[C@H](C)C(=O)N[C@@H](C)C(=O)N[C@H](CCC(=O)O)C(N)=O)[C@H]1NC(=O)CO`, for which, in assay [5], the fold change (FC) stood at 5.9.

For the compound `C[C@H](NC(=O)[C@@H](C)O[C@H]1[C@H](O)[C@@H](CO)O[C@@H](O)[C@@H]1NC(=O)Cc1ccccc1)C(=O)N[C@H](CCC(=O)O)C(N)=O`, in assay [5], the fold change (FC) is 3.85.

On to `CO[C@@H]1O[C@H](CO)[C@@H](O)[C@H](O[C@H](C)C(=O)N[C@@H](C)C(=O)N[C@H](CCC(=O)O)C(N)=O)[C@H]1NC(=O)Cc1ccccc1`, for which, in assay [5], the fold change (FC) was found to be 4.45.

With `CCCCCCCCCCCCCCCCCCCC(=O)NC[C@H]1O[C@@H](O)[C@H](N)[C@@H](O[C@H](C)C(=O)N[C@@H](C)C(=O)N[C@H](CCC(=O)O)C(N)=O)[C@@H]1O.Cl`, the Activity in the assay listed under Cavia porcellus stood at 8 mm.

With `CCOC(=O)[C@@H](CCC(=O)O)NC(=O)[C@H](C)NC(=O)[C@@H](C)O[C@H]1[C@H](O)[C@@H](CO)O[C@@H](O)[C@@H]1NC(C)=O`, the fold change (FC) in assay [1] was determined as 4; in assay [2], 6.6; in assay [3], 6.3; in assay [4], 4.

`CCOC(=O)CC[C@@H](NC(=O)[C@H](C)NC(=O)[C@@H](C)O[C@H]1[C@H](O)[C@@H](CO)O[C@@H](O)[C@@H]1NC(C)=O)C(=O)OCC`: the fold change (FC) stood at 2.3 in assay [1], 6.5 in assay [2], 4.7 in assay [3] and 2.3 in assay [4].

With `CCCCCCCCCCCCOC(=O)[C@@H](CCC(=O)O)NC(=O)[C@H](C)NC(=O)[C@@H](C)O[C@H]1[C@H](O)[C@@H](CO)O[C@@H](O)[C@@H]1NC(C)=O`, the fold change (FC) was found to be 7.5 in assay [1], 6.3 in assay [2], 6.5 in assay [3] and 7.5 in assay [4].

Regarding `CCCCCCCCC(=O)N[C@H]1[C@H](OC)O[C@H](CO)[C@@H](O)[C@@H]1O[C@H](C)C(=O)N[C@@H](C)C(=O)N[C@H](CCC(=O)O)C(N)=O`, the fold change (FC) in assay [5] is 4.3.

For `CCCCCCCCOC(=O)[C@@H](CCC(=O)O)NC(=O)[C@H](C)NC(=O)[C@@H](C)O[C@H]1[C@H](O)[C@@H](CO)O[C@@H](O)[C@@H]1NC(C)=O`, the fold change (FC) in assay [1] was 6.1; in assay [2], 6.3; in assay [3], 6.9; in assay [4], 6.1.

For the compound `CCCCCCCCC(=O)N[C@@H]1[C@@H](O[C@H](C)C(=O)N[C@@H](C)C(=O)N[C@H](CCC(=O)O)C(N)=O)[C@H](O)[C@@H](CO)O[C@H]1O`, the fold change (FC) in assay [5] stood at 2.4.

In the case of `C[C@H](NC(=O)[C@@H](C)O[C@H]1[C@H](O)[C@@H](CO)O[C@@H](OCCCCN)[C@@H]1NC(=O)CO)C(=O)N[C@H](CCC(=O)O)C(N)=O`, the fold change (FC) in assay [5] worked out at 5.

`CC(=O)N[C@@H]1[C@@H](O[C@H](C)C(=O)N[C@@H](C)C(=O)N[C@H](CCC(=O)O)C(=O)OCCc2ccccc2)[C@H](O)[C@@H](CO)O[C@H]1O`: the fold change (FC) in assay [1] worked out at 5.6; in assay [2], 6; in assay [3], 7; in assay [4], 5.6.

Consider `CCOC(=O)CC[C@@H](NC(=O)[C@H](C)NC(=O)[C@@H](C)O[C@H]1[C@H](O)[C@@H](CO)O[C@@H](O)[C@@H]1NC(C)=O)C(N)=O`, for which the fold change (FC) in assay [1] came out at 1.6; in assay [2] it was 5.6; in assay [3], 2.8; in assay [4], 1.6.

With `C[C@H](NC(=O)CO[C@H]1[C@H](O)[C@@H](CO)O[C@@H](O)[C@@H]1NC(=O)CO)C(=O)N[C@H](CCC(=O)O)C(N)=O`, the fold change (FC) in assay [5] was found to be 5.8.

`CCCCOC(=O)[C@@H](CCC(=O)O)NC(=O)[C@H](C)NC(=O)[C@@H](C)O[C@H]1[C@H](O)[C@@H](CO)O[C@@H](O)[C@@H]1NC(C)=O`: the fold change (FC) was found to be 4.7 in assay [1], 7.8 in assay [2], 7.1 in assay [3] and 4.7 in assay [4].

For `C[C@H](NC(=O)[C@@H](C)O[C@@H]1[C@@H](N)[C@H](O)O[C@H](CO)[C@H]1O)C(=O)N[C@H](CCC(=O)O)C(N)=O`, the fold change (FC) in assay [5] is 4.6.

Regarding `CC(=O)N[C@@H]1[C@@H](O[C@H](C)C(=O)N[C@@H](C)C(=O)N[C@H](CC(=O)O)C(N)=O)[C@H](O)[C@@H](CO)O[C@H]1O`, the fold change (FC) is 1.85 in assay [1], 1.9 in assay [2] and 1.87 in assay [3].

For the compound `C[C@H](NC(=O)[C@@H](C)O[C@H]1[C@H](O)[C@@H](CO)O[C@@H](O)[C@@H]1NC(=O)CO)C(=O)N[C@H](CCC(=O)O)C(N)=O`, the fold change (FC) in assay [5] was 4.5.

Take `COCC(=O)N[C@H]1[C@H](OC)O[C@H](CO)[C@@H](O)[C@@H]1O[C@H](C)C(=O)N[C@@H](C)C(=O)N[C@H](CCC(=O)O)C(N)=O`: the fold change (FC) in assay [5] was found to be 5.55.

`CC(=O)N[C@@H]1[C@@H](O[C@H](C)C(=O)N[C@@H](C)C(=O)N[C@H](CCC(=O)O)C(=O)O)[C@H](O)[C@@H](CO)O[C@H]1O`: the fold change (FC) in assay [1] stood at 2.5; in assay [2] it was 6.1; in assay [3], 4.5; in assay [4], 2.5.

As for `CCCCC(=O)N[C@H]1[C@H](OC)O[C@H](CO)[C@@H](O)[C@@H]1O[C@H](C)C(=O)N[C@@H](C)C(=O)N[C@H](CCC(=O)O)C(N)=O`, the fold change (FC) in assay [5] turned out to be 5.25.
